Experimental data reported in paper PMC3082038 (Cancer Chemotherapy and Pharmacology, 2010).

Assay: Plasma pharmacokinetics of TSU-68 in phase I patients
Type: in vivo, human
Conditions: for AUC(0-t) / AUC / Cmax / half-life / Tmax: human, plasma, oral

With `Cc1[nH]c(/C=C2\C(=O)Nc3ccccc32)c(C)c1CCC(=O)O` [TSU-68, (Z)-5-[(1,2-dihydro-2-oxo-3H-indol-3-ylidene)methyl]-2,4-dimethyl-1H-pyrrole-3-propanoic acid] the “AUC0–t” value (b.i.d. after meal, 1st dose, 400 mg/m^2, n=6, mean ± SD) was 76.44 ± 23.07 h, the “AUC0–t” value (b.i.d. after meal, 3rd dose, 200 mg/m^2, n=3, mean ± SD) was 33.28 ± 4.329 h and the “AUC0–t” value (b.i.d. after meal, 3rd dose, 500 mg/m^2, n=3, mean ± SD) was 45.74 ± 14.59 h. For the same compound, the “C max and AUC after repeated administration versus 1st administration on day 1” value (b.i.d. regimen, any dose level, days 2 and 28) was “approximately twofold lower”, the AUC(0-t) (200 mg/m2, AUC0–t, b.i.d. after meal, 1st dose, 200 mg/m^2, n=3, mean ± SD) was 55200 ± 5360 ng·h/mL and the AUC(0-t) (200 mg/m2, AUC0–t, b.i.d. after meal, 56th dose, 200 mg/m^2, n=3, mean ± SD) was 32200 ± 1540 ng·h/mL. For the same compound, the AUC(0-t) (200 mg/m2, AUC0–t, t.i.d. after meal, 1st dose, 200 mg/m^2, n=6, mean ± SD) was 37000 ± 18200 ng·h/mL, the AUC(0-t) (200 mg/m2, AUC0–t, t.i.d. after meal, 2nd dose, 200 mg/m^2, n=6, mean ± SD) was 31500 ± 12500 ng·h/mL and the AUC (200 mg/m2, AUC Day 28, Pt 1, Cervical ca., b.i.d. 200 mg/m^2 (800 mg/day)) was 32800 ng·h/mL. For the same compound, the AUC (200 mg/m2, AUC Day 28, Pt 2, NSCLC, b.i.d. 200 mg/m^2 (800 mg/day)) was 33400 ng·h/mL, the AUC (200 mg/m2, AUC Day 28, Pt 13, Colon ca., t.i.d. 200 mg/m^2 (1200 mg/day)) was 25300 ng·h/mL and the AUC (200 mg/m2, AUC Day 28, Pt 14, Soft tissue sa., t.i.d. 200 mg/m^2 (600 mg/day)) was 19000 ng·h/mL. The Cmax (200 mg/m2, C max, b.i.d. after meal, 1st dose, 200 mg/m^2, n=3, mean ± SD) was 11200 ± 1150 ng/mL, the Cmax (200 mg/m2, C max, b.i.d. after meal, 3rd dose, 200 mg/m^2, n=3, mean ± SD) was 6000 ± 671 ng/mL and the Cmax (200 mg/m2, C max, b.i.d. after meal, 56th dose, 200 mg/m^2, n=3, mean ± SD) was 4790 ± 526 ng/mL. It also gave a Cmax (200 mg/m2, C max, t.i.d. after meal, 1st dose, 200 mg/m^2, n=6, mean ± SD) of 11000 ± 5530 ng/mL, a Cmax (200 mg/m2, C max, t.i.d. after meal, 2nd dose, 200 mg/m^2, n=6, mean ± SD) of 7010 ± 2410 ng/mL and a Cmax (200 mg/m2, C max, t.i.d. after meal, 84th dose, 200 mg/m^2, n=6, mean ± SD) of 3850 ± 2980 ng/mL. The half-life (200 mg/m2, T 1/2, b.i.d. after meal, 1st dose, 200 mg/m^2, n=3, mean ± SD) was 142 ± 51.6 min, the half-life (200 mg/m2, T 1/2, b.i.d. after meal, 3rd dose, 200 mg/m^2, n=3, mean ± SD) was 162 ± 28.3 min and the half-life (200 mg/m2, T 1/2, b.i.d. after meal, 56th dose, 200 mg/m^2, N = 2, mean) was 208 min. It also gave a half-life (200 mg/m2, T 1/2, t.i.d. after meal, 1st dose, 200 mg/m^2, N = 3, mean ± SD) of 122 ± 27.6 min, a half-life (200 mg/m2, T 1/2, t.i.d. after meal, 2nd dose, 200 mg/m^2, N = 2, mean) of 179 min and a Tmax (200 mg/m2, T max, b.i.d. after meal, 1st dose, 200 mg/m^2, n=3, mean ± SD) of 3 ± 1 h. It also gave a Tmax (200 mg/m2, T max, b.i.d. after meal, 3rd dose, 200 mg/m^2, n=3, mean ± SD) of 3.5 ± 2.29 h, a Tmax (200 mg/m2, T max, b.i.d. after meal, 56th dose, 200 mg/m^2, n=3, mean ± SD) of 2.67 ± 1.16 h and a Tmax (200 mg/m2, T max, t.i.d. after meal, 1st dose, 200 mg/m^2, n=6, mean ± SD) of 3.08 ± 1.43 h. The Tmax (200 mg/m2, T max, t.i.d. after meal, 2nd dose, 200 mg/m^2, n=6, mean ± SD) was 3.67 ± 1.37 h, the Tmax (200 mg/m2, T max, t.i.d. after meal, 84th dose, 200 mg/m^2, n=6, mean ± SD) was 2 ± 1.05 h and the AUC (200 mg/m^2 t.i.d., AUC Day 28, Pt 18, Colon ca., t.i.d. 200 mg/m^2 (1,200 mg/day)) was 12500 ng·h/mL. For the same compound, the AUC(0-t) (400 mg/m2, AUC0–t, b.i.d. after meal, 3rd dose, 400 mg/m^2, n=6, mean ± SD) was 40400 ± 10600 ng·h/mL, the AUC(0-t) (400 mg/m2, AUC0–t, b.i.d. after meal, 56th dose, 400 mg/m^2, N = 4, mean ± SD) was 36900 ± 20300 ng·h/mL and the AUC(0-t) (400 mg/m2, AUC0–t, t.i.d. after meal, 1st dose, 400 mg/m^2, n=6, mean ± SD) was 41600 ± 21600 ng·h/mL. For the same compound, the AUC(0-t) (400 mg/m2, AUC0–t, t.i.d. after meal, 2nd dose, 400 mg/m^2, n=6, mean ± SD) was 42000 ± 18900 ng·h/mL, the AUC(0-t) (400 mg/m2, AUC0–t, t.i.d. after meal, 84th dose, 400 mg/m^2, n=6, mean ± SD) was 31600 ± 16100 ng·h/mL and the Cmax (400 mg/m2, C max, b.i.d. after meal, 1st dose, 400 mg/m^2, n=6, mean ± SD) was 17100 ± 6590 ng/mL. The Cmax (400 mg/m2, C max, b.i.d. after meal, 3rd dose, 400 mg/m^2, n=6, mean ± SD) was 8290 ± 2720 ng/mL, the Cmax (400 mg/m2, C max, b.i.d. after meal, 56th dose, 400 mg/m^2, N = 4, mean ± SD) was 8410 ± 5870 ng/mL and the Cmax (400 mg/m2, C max, t.i.d. after meal, 1st dose, 400 mg/m^2, n=6, mean ± SD) was 12400 ± 5760 ng/mL. It also gave a Cmax (400 mg/m2, C max, t.i.d. after meal, 2nd dose, 400 mg/m^2, n=6, mean ± SD) of 9340 ± 4510 ng/mL, a Cmax (400 mg/m2, C max, t.i.d. after meal, 84th dose, 400 mg/m^2, n=6, mean ± SD) of 4780 ± 1950 ng/mL and a half-life (400 mg/m2, T 1/2, b.i.d. after meal, 1st dose, 400 mg/m^2, n=6, mean ± SD) of 176 ± 41.5 min. For the same compound, the half-life (400 mg/m2, T 1/2, b.i.d. after meal, 3rd dose, 400 mg/m^2, n=6, mean ± SD) was 207 ± 82 min, the half-life (400 mg/m2, T 1/2, b.i.d. after meal, 56th dose, 400 mg/m^2 (6), mean ± SD) was 156 ± 31.6 min and the half-life (400 mg/m2, T 1/2, t.i.d. after meal, 1st dose, 400 mg/m^2, N = 1) was 157 min. It also gave a half-life (400 mg/m2, T 1/2, t.i.d. after meal, 2nd dose, 400 mg/m^2, N = 3, mean ± SD) of 144 ± 68.6 min, a half-life (400 mg/m2, T 1/2, t.i.d. after meal, 84th dose, 400 mg/m^2, N = 2, mean) of 134 min and a Tmax (400 mg/m2, T max, b.i.d. after meal, 1st dose, 400 mg/m^2, n=6, mean ± SD) of 2.67 ± 0.817 h. For the same compound, the Tmax (400 mg/m2, T max, b.i.d. after meal, 3rd dose, 400 mg/m^2, n=6, mean ± SD) was 2.67 ± 0.817 h, the Tmax (400 mg/m2, T max, b.i.d. after meal, 56th dose, 400 mg/m^2, N = 4, mean ± SD) was 2.38 ± 0.75 h and the Tmax (400 mg/m2, T max, t.i.d. after meal, 1st dose, 400 mg/m^2, n=6, mean ± SD) was 3.42 ± 1.2 h. It also gave a Tmax (400 mg/m2, T max, t.i.d. after meal, 2nd dose, 400 mg/m^2, n=6, mean ± SD) of 3 ± 1.79 h and a Tmax (400 mg/m2, T max, t.i.d. after meal, 84th dose, 400 mg/m^2, n=6, mean ± SD) of 2.92 ± 1.2 h.
